# According to US8604061B2, “2-aminooxazolines as TAAR1 ligands” (Hoffmann-La Roche Inc., priority 2007, dated 2013):
# Molecular target: TAAR1 (Mus musculus, UniProt Q923Y8)
# Assay: TAAR1 radioligand binding, membranes of stably transfected HEK293 cells (mouse)
# Details: not given
# Procedure: For the construction of expression plasmids the coding sequences of human, rat and mouse TAAR 1 were amplified from genomic DNA essentially as described by Lindemann et al.. The Expand High Fidelity PCR System (Roche Diagnostics) was used with 1.5 mM Mg^2+ and purified PCR products were cloned into pCR2.1-TOPO cloning vector (Invitrogen) following the instructions of the manufacturer. PCR products were subcloned into the pIRESneo2 vector (BD Clontech, Palo Alto, Calif.), and expression vectors were sequence verified before introduction in cell lines.
# HEK293 cells (ATCC #CRL-1573) were cultured essentially as described Lindemann et al. (2005). For the generation of stably transfected cell lines HEK293 cells were transfected with the pIRESneo2 expression plasmids containing the TAAR coding sequences (described above) with Lipofectamine 2000 (Invitrogen) according to the instructions of the manufacturer, and 24 hrs post transfection the culture medium was supplemented with 1 mg/ml G418 (Sigma, Buchs, Switzerland). After a culture period of about 10 d clones were isolated, expanded and tested for responsiveness to trace amines (all compounds purchased from Sigma) with the cAMP Biotrak Enzyme immunoassay (EIA) System (Amersham) following the non-acetylation EIA procedure provided by the manufacturer.
# Cells at confluence were rinsed with ice-cold phosphate buffered saline without Ca^2+ and Mg^2+ containing 10 mM EDTA and pelleted by centrifugation at 1000 rpm for 5 min at 4° C. The pellet was then washed twice with ice-cold phosphate buffered saline and cell pellet was frozen immediately by immersion in liquid nitrogen and stored until use at −80° C. Cell pellet was then suspended in 20 ml HEPES-NaOH (20 mM), pH 7.4 containing 10 mM EDTA, and homogenized with a Polytron (PT 3000, Kinematica) at 10,000 rpm for 10 s. The homogenate was centrifuged at 48,000×g for 30 min at 4° C. and the pellet resuspended in 20 ml HEPES-NaOH (20 mM), pH 7.4 containing 0.1 mM EDTA (buffer A), and homogenized with a Polytron at 10,000 rpm for 10 s. The homogenate was then centrifuged at 48,000×g for 30 min at 4° C. and the pellet resuspended in 20 ml buffer A, and homogenized with a Polytron at 10,000 rpm for 10 s. Protein concentration was determined by the method of Pierce (Rockford, Ill.). The homogenate was then centrifuged at 48,000×g for 10 min at 4° C., resuspended in HEPES-NaOH (20 mM), pH 7.0 including MgCl2 (10 mM) and […] homogenized with a Polytron at 10,000 rpm for 10 s.
# Binding assay was performed at 4° C. in a final volume of 1 ml, and with an incubation time of 30 min. […] Non-specific binding was defined as the amount of [^3H]-rac-2-(1,2,3,4-tetrahydro-1-naphthyl)-2-imidazoline bound in the presence of the appropriate unlabelled ligand (10 μM). Competing ligands were tested in a wide range of concentrations (10 pM-30 μM). […] Each experiment was performed in duplicate. All incubations were terminated by rapid filtration through UniFilter-96 plates (Packard Instrument Company) and glass filter GF/C, pre-soaked for at least 2 h in polyethylenimine 0.3%, and using a Filtermate 96 Cell Harvester (Packard Instrument Company). The tubes and filters were then washed 3 times with 1 ml aliquots of cold buffer B. Filters were not dried and soaked in Ultima gold (45 μl/well, Packard Instrument Company) and bound radioactivity was counted by a TopCount Microplate Scintillation Counter (Packard Instrument Company).
row,SMILES,Ki [µM]
1,"NC1=NC(CCc2ccccc2)CO1 (racemic) [D, (RS)-4-Phenethyl-4,5-dihydro-oxazol-2-ylamine, reference compound]",0.001
2,"NC1=NC(c2ccc(Cl)cc2)CO1 (racemic) [Example 5, (RS)-4-(4-Chloro-phenyl)-4,5-dihydro-oxazol-2-ylamine]",0.0021
3,"NC1=NC(c2ccccc2C(F)(F)F)CO1 (racemic) [Example 6, (RS)-4-(2-Trifluoromethyl-phenyl)-4,5-dihydro-oxazol-2-ylamine]",0.0038
4,"NC1=NC(c2ccc(F)cc2F)CO1 (racemic) [Example 7, (RS)-4-(2,4-Difluoro-phenyl)-4,5-dihydro-oxazol-2-ylamine]",0.0083
5,"Cc1ccccc1C1COC(N)=N1 (racemic) [Example 8, (RS)-4-o-Tolyl-4,5-dihydro-oxazol-2-ylamine]",0.0058
6,"NC1=NC(c2ccc(-c3ccccc3)cc2)CO1 (racemic) [Example 10, (RS)-4-Biphenyl-4-yl-4,5-dihydro-oxazol-2-ylamine]",0.0025
7,"NC1=NC(c2ccc(OC(F)(F)F)cc2)CO1 (racemic) [Example 12, (RS)-4-(4-Trifluoromethoxy-phenyl)-4,5-dihydro-oxazol-2-ylamine]",0.008
8,"NC1=NC(c2ccc(Cl)c(Cl)c2)CO1 (racemic) [Example 14, (RS)-4-(3,4-Dichlorophenyl)-4,5-dihydro-oxazol-2-ylamine]",0.0005
9,"NC1=NC(c2cc(F)ccc2F)CO1 (racemic) [Example 16, (RS)-4-(2,5-Difluoro-phenyl)-4,5-dihydro-oxazol-2-ylamine]",0.0048
10,"NC1=NC(c2ccc(F)c(F)c2F)CO1 (racemic) [Example 17, (RS)-4-(2,3,4-Trifluoro-phenyl)-4,5-dihydro-oxazol-2-ylamine]",0.0057
11,"NC1=NC(c2cccc(Cl)c2F)CO1 (racemic) [Example 18, (RS)-4-(3-Chloro-2-fluoro-phenyl)-4,5-dihydro-oxazol-2-ylamine]",0.0022
12,"NC1=NC(c2cc(Cl)ccc2F)CO1 (racemic) [Example 19, (RS)-4-(5-Chloro-2-fluoro-phenyl)-4,5-dihydro-oxazol-2-ylamine]",0.0018
13,"NC1=NC(c2ccc(Br)cc2)CO1 (racemic) [Example 20, (RS)-4-(4-Bromo-phenyl)-4,5-dihydro-oxazol-2-ylamine]",0.0009
14,"NC1=NC(c2ccc(OCc3ccccc3)cc2)CO1 (racemic) [Example 22, (RS)-4-(4-Benzyloxy-phenyl)-4,5-dihydro-oxazol-2-ylamine]",0.0011
15,"NC1=NC(c2ccc(-c3ccc(Cl)cc3)cc2)CO1 (racemic) [Example 31, (RS)-4-(4′-Chloro-biphenyl-4-yl)-4,5-dihydro-oxazol-2-ylamine]",0.0022
16,"NC1=NC(c2ccc3c(c2)OCCO3)CO1 (racemic) [Example 32, (RS)-4-(2,3-Dihydro-benzo[1,4]dioxin-6-yl)-4,5-dihydro-oxazol-2-ylamine]",0.0029
17,"NC1=NC(c2ccc3ccccc3c2)CO1 (racemic) [Example 33, (RS)-4-Naphthalen-2-yl-4,5-dihydro-oxazol-2-ylamine]",0.0007
18,"NC1=NC(c2cccc3ccccc23)CO1 (racemic) [Example 34, (RS)-4-Naphthalen-1-yl-4,5-dihydro-oxazol-2-ylamine]",0.0011

row,SMILES,Ki [µM]
1,"COc1ccc(C2COC(N)=N2)cc1C (racemic) [Example 35, (RS)-4-(4-Methoxy-3-methyl-phenyl)-4,5-dihydro-oxazol-2-ylamine]",0.0033
2,"COc1ccc(C2COC(N)=N2)cc1Cl (racemic) [Example 36, (RS)-4-(3-Chloro-4-methoxyphenyl)-4,5-dihydro-oxazol-2-ylamine]",0.0034
3,"NC1=NC(C2CCc3ccccc3C2)CO1 (racemic) [Example 84, (RS)-4-(1,2,3,4-Tetrahydro-naphthalen-2-yl)-4,5-dihydro-oxazol-2-ylamine]",0.0017
4,"NC1=NC(c2cccc(Cl)c2)CO1 (racemic) [Example 185, (RS)-4-(3-Chloro-phenyl)-4,5-dihydro-oxazol-2-ylamine]",0.005
5,"NC1=NC(c2cccc(Br)c2)CO1 (racemic) [Example 186, (RS)-4-(3-Bromo-phenyl)-4,5-dihydro-oxazol-2-ylamine]",0.0045
6,"NC1=NC(c2cc(Cl)cc(Cl)c2)CO1 (racemic) [Example 189, (RS)-4-(3,5-Dichloro-phenyl)-4,5-dihydro-oxazol-2-ylamine]",0.0008
7,"NC1=NC(c2ccc(F)cc2C(F)(F)F)CO1 (racemic) [Example 224, (RS)-4-(4-Fluoro-2-trifluoromethyl-phenyl)-4,5-dihydro-oxazol-2-ylamine]",0.0063
8,"NC1=NC(c2cc(Cl)ccc2C(F)(F)F)CO1 (racemic) [Example 225, (RS)-4-(5-Chloro-2-trifluoromethyl-phenyl)-4,5-dihydro-oxazol-2-ylamine]",0.0062
9,"NC1=NC(c2ccc(Cl)cc2C(F)(F)F)CO1 (racemic) [Example 226, (RS)-4-(4-Chloro-2-trifluoromethyl-phenyl)-4,5-dihydro-oxazol-2-ylamine]",0.0054
10,"COc1ccc(C2COC(N)=N2)c(C(F)(F)F)c1 (racemic) [Example 229, (RS)-4-(4-Methoxy-2-trifluoromethyl-phenyl)-4,5-dihydro-oxazol-2-ylamine]",< 3
11,"NC1=NC(c2cc(Cl)c(Cl)cc2C(F)(F)F)CO1 (racemic) [Example 234, (RS)-4-(4,5-Dichloro-2-trifluoromethyl-phenyl)-4,5-dihydro-oxazol-2-ylamine]",0.0093
12,"NC1=NC(c2ccc(Cl)cc2Cl)CO1 (racemic) [Example 235, (RS)-4-(2,4-Dichloro-phenyl)-4,5-dihydro-oxazol-2-ylamine]",0.001
13,"NC1=NC(c2ccccc2Br)CO1 (racemic) [Example 237, (RS)-4-(2-Bromo-phenyl)-4,5-dihydro-oxazol-2-ylamine]",0.0025
14,"NC1=NC(c2cc(F)ccc2C(F)(F)F)CO1 (racemic) [Example 249, (RS)-4-(5-Fluoro-2-trifluoromethyl-phenyl)-4,5-dihydro-oxazol-2-ylamine]",0.0075
15,"Cc1ccc(F)cc1C1COC(N)=N1 (racemic) [Example 250, (RS)-4-(5-Fluoro-2-methyl-phenyl)-4,5-dihydro-oxazol-2-ylamine]",0.0022
16,"NC1=NC(c2ccc(Br)c(F)c2)CO1 (racemic) [Example 252, (RS)-4-(4-Bromo-3-fluoro-phenyl)-4,5-dihydro-oxazol-2-ylamine]",0.0008
17,"NC1=NC(c2cc(Cl)ccc2Cl)CO1 (racemic) [Example 260, (RS)-4-(2,5-Dichloro-phenyl)-4,5-dihydro-oxazol-2-ylamine]",0.0013

# Same assay, conditions: mouse/rat; cell not marked 'rat'; radioligand [3H]-rac-2-(1,2,3,4-tetrahydro-1-naphthyl)-2-imidazoline, 4° C.; read-out: Ki (μM) mouse/rat
row,SMILES,Ki [µM]
1,"Cc1ccc(F)c(CC2COC(N)=N2)c1 (racemic) [Example 73, (RS)-4-(2-Fluoro-5-methyl-benzyl)-4,5-dihydro-oxazol-2-ylamine]",0.0089
2,"CC1(CCc2ccccc2)COC(N)=N1 (racemic) [Example 78, (RS)-4-Methyl-4-phenethyl-4,5-dihydro-oxazol-2-ylamine]",0.0064
3,"CC1(c2cc(F)c(F)cc2F)COC(N)=N1 (racemic) [Example 251, (RS)-4-Methyl-4-(2,4,5-trifluoro-phenyl)-4,5-dihydro-oxazol-2-ylamine]",0.0086
